For 12 molecules, IC50 results are on record in patent US11958861B2, “Spirocyclic lactams as JAK2 V617F inhibitors” (Incyte Corporation, priority 2021, dated 2024).

Structures can show the parent of a compound that is named as a salt.

Test [1] has as its target T1, pseudo-kinase domain (JH2, amino-acids 536-812) of human V617F mutant JAK2 (Homo sapiens, UniProt O60674, F794H/V617F/W659A/W777A).
T1 construct: pseudo-kinase domain (JH2, amino-acids 536-812 with 3 surface mutations W659A, W777A, F794H); purchased BPS Bioscience 79498; host or cells: baculovirus expression system
As to the kind of experiment: JAK2 LanthaScreen JH2-V617F Binding Assay. The note with it: 1 hour at 25° C. The essentials: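 IC50 values came from four-parameter dose-response fits of LanthaScreen signal, read after compounds sat 1 hour at 25° C with 0.26 nM baculovirus-expressed biotinylated protein, 50 nM fluorescent tracer and 0.25 nM streptavidin-Tb cryptate. Non-specific binding was set with 2 mM ATP.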
Background: TR-FRET usually uses a lanthanide donor and a delayed reading to cut background.

Test [2] addresses T2, pseudo-kinase domain (JH2, amino-acids 536-812) of human Wild Type JAK2 (Homo sapiens, UniProt O60674, F794H/W659A/W777A).
T2 construct: pseudo-kinase domain (JH2, amino-acids 536-812 with 3 surface mutations W659A, W777A, F794H); purchased BPS Bioscience 79463; host or cells: baculovirus expression system
As to the kind of experiment: JAK2 LanthaScreen JH2-WT Binding Assay. The note with it: 1 hour at 25° C. Summed up: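 IC50 values derive from four-parameter fits of LanthaScreen signal, measuring displacement of 50 nM fluorescent tracer from 0.145 nM biotinylated, baculovirus-expressed JH2 (536-812) detected by 0.25 nM streptavidin-Tb. Incubation lasts 1 hour at 25° C, pH 7.5.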

In test [3] the target is T3, catalytic domain (JH1, amino acids 826-1132) of human JAK2 (Homo sapiens, UniProt O60674).
T3 construct: catalytic domain (JH1, amino acids 826-1132) of human JAK2; purchased Carna Biosciences 08-445-20N; host or cells: baculovirus expression system
T3 sequence (O60674 826-1132): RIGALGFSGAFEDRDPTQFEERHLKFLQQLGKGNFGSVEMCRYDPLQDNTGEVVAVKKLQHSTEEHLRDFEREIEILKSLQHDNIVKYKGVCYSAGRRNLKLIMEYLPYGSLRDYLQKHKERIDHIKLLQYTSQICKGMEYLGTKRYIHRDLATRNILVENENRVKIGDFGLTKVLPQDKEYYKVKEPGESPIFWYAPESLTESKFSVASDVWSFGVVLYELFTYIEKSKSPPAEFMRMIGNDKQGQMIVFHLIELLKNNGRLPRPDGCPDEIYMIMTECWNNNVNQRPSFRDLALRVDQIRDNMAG
Kind of test: JAK2 LanthaScreen JH1 Binding Assay. The note with it: 2 hours at 25° C. The essentials: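 FLAG-tagged biotinylated JAK2 JH1 (1.5 nM) incubated with compounds, 50 nM fluorescent tracer and 0.5 nM streptavidin-Tb in Tris pH 7.5 buffer with MgCl2, BSA, DTT, 2 h at 25 °C.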

For test [4], the target named is T4, catalytic domain (JH1, amino acids 808-1132) of human JAK2 (Homo sapiens, UniProt O60674).
T4 construct: catalytic domain (JH1, amino acids 808-1132) of human JAK2; His (N); purchased BPS Bioscience 40450; host or cells: baculovirus expression system
T4 sequence (O60674 808-1132): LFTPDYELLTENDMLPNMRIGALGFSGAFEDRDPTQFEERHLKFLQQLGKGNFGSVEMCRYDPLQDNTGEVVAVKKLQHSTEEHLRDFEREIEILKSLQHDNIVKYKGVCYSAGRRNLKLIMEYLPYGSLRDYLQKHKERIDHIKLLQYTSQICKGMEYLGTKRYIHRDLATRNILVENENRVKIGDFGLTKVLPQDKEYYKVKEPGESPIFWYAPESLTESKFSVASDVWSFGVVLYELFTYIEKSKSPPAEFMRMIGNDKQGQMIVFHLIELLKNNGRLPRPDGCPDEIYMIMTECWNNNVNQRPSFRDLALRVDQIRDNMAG
Kind of test: JAK2 HTRF Enzyme Activity Assay. It is filed as biochemical. The note with it: ATP 30 μM, read-out: ENZ 30UMATP. Summed up:
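His-tagged JAK2 JH1 from baculovirus, 0.015 nM, incubated with compound, ATP at 30 μM or 1 mM and 500 nM biotinylated peptide, pH 7.5, 60 min at 25° C. HTRF read-out via Eu-anti-phosphotyrosine and streptavidin-APC after EDTA stop; IC50 from four-parameter dose-response fit.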

T1 sequence (O60674 536-812 V617F/W659A/W777A/F794H): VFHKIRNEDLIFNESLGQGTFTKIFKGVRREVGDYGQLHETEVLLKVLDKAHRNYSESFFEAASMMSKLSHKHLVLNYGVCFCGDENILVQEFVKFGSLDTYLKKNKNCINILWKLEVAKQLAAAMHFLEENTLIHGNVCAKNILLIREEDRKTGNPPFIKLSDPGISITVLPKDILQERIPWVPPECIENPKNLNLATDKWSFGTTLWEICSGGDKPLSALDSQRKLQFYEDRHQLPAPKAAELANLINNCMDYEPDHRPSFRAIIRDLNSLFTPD
T2 sequence (O60674 536-812 W659A/W777A/F794H): as the sequence (O60674 536-812 V617F/W659A/W777A/F794H) above, with F82V counted along it

In the case of `CN1C(=O)C2(CCN(C3(CC#N)CCC3)CC2)c2c1cnc1[nH]c(-c3cnn(CC(C)(C)O)c3)c(-c3ccc(C(F)(F)F)cc3)c21` [Example 52, 2-(1-(2-(1-(2-Hydroxy-2-methylpropyl)-1H-pyrazol-4-yl)-6-methyl-7-oxo-1-(4-(trifluoromethyl)phenyl)-6,7-dihydro-3H-spiro[dipyrrolo[2,3-b:3′,2′-d]pyridine-8,4′-piperidin]-1′-yl)cyclobutyl)acetonitrile, trifluoroacetate salt], the IC50 in test [1] was no more than 100 nM; in test [2], no more than 100 nM; in test [3], greater than 2500 nM; in test [4], greater than 2500 nM.
Turning to `CCS(=O)(=O)N1CC2(C1)CC1(C2)C(=O)N(C)c2cnc3[nH]c(-c4cnn(C(C)C)c4)c(-c4ccc5c(cnn5C)c4)c3c21` [Example 54, 1-(Ethylsulfonyl)-2″-(1-isopropyl-1H-pyrazol-4-yl)-6″-methyl-1″-(1-methyl-1H-indazol-5-yl)-3″,6″-dihydro-7″H-dispiro[azetidine-3,1′-cyclobutane-3′,8″-dipyrrolo[2,3-b:3′,2′-d]pyridin]-7″-one, trifluoroacetate salt], the IC50 in test [1] is no more than 100 nM; in test [2] it was no more than 100 nM; in test [3], 500 to 1250 nM; in test [4] it was 500 to 1250 nM.
`CN1C(=O)C2(Cc3ccccc3C2)c2c1cnc1[nH]c(-c3ccc(CN4CCC(S(C)(=O)=O)CC4)cc3)cc21` [Example 57, 6-Methyl-2-(4-((4-(methylsulfonyl)piperidin-1-yl)methyl)phenyl)-1′,3,3′,6-tetrahydro-7H-spiro[dipyrrolo[2,3-b:3′,2′-d]pyridine-8,2′-inden]-7-one]: the IC50 in test [1] is greater than 2500 nM; in test [2], 1250 to 2500 nM; in test [3] it was greater than 2500 nM; in test [4] it was greater than 2500 nM.
As to `[2H]C([2H])([2H])n1ncc2cc(-c3c(-c4cnn(C)c4)[nH]c4ncc5c(c34)C3(CC4(CCN(C(=O)OC)CC4)C3)C(=O)N5C)ccc21` [Example 58, Methyl 6-methyl-2-(1-methyl-1H-pyrazol-4-yl)-1-(1-(methyl-d3)-1H-indazol-5-yl)-7-oxo-6,7-dihydro-3H-dispiro[dipyrrolo[2,3-b:3′,2′-d]pyridine-8,1′-cyclobutane-3′,4″-piperidine]-1″-carboxylate, trifluoroacetate salt], the IC50 in test [1] is no more than 100 nM; in test [2], no more than 100 nM; in test [3], 1250 to 2500 nM; in test [4], 1250 to 2500 nM.
Take `CCCC(=O)N1CCC2(CC1)CC1(C2)C(=O)N(C)c2cnc3[nH]c(-c4cnn(C)c4)c(-c4ccc5c(cnn5C)c4)c3c21` [Example 59, 1″-Butyryl-6-methyl-1-(1-methyl-1H-indazol-5-yl)-2-(1-methyl-1H-pyrazol-4-yl)-3,6-dihydro-7H-dispiro[dipyrrolo[2,3-b:3′,2′-d]pyridine-8,1′-cyclobutane-3′,4″-piperidin]-7-one, trifluoroacetate salt]: the IC50 in test [1] is no more than 100 nM; in test [2], no more than 100 nM; in test [3] it was 1250 to 2500 nM; in test [4], 1250 to 2500 nM.
On to `CN(C)C(=O)N1CCC2(CC1)CC1(C2)C(=O)N(C)c2cnc3[nH]c(-c4cnn(C)c4)c(-c4ccc5c(cnn5C)c4)c3c21` [Example 60, N,N,6-Trimethyl-1-(1-methyl-1H-indazol-5-yl)-2-(1-methyl-1H-pyrazol-4-yl)-7-oxo-6,7-dihydro-3H-dispiro[dipyrrolo[2,3-b:3′,2′-d]pyridine-8,1′-cyclobutane-3′,4″-piperidine]-1″-carboxamide, trifluoroacetate salt], for which the IC50 in test [1] is no more than 100 nM; in test [2], no more than 100 nM; in test [3] it was 1250 to 2500 nM; in test [4], 1250 to 2500 nM.
In the case of `COC(=O)N1CCC2(CC1)CC1(C2)C(=O)N(C)c2cnc3[nH]c(-c4cnn(C)c4)c(-c4ccc5c(cnn5C)c4)c3c21` [Example 61, Methyl 6-methyl-1-(1-methyl-1H-indazol-5-yl)-2-(1-methyl-1H-pyrazol-4-yl)-7-oxo-6,7-dihydro-3H-dispiro[dipyrrolo[2,3-b:3′,2′-d]pyridine-8,1′-cyclobutane-3′,4″-piperidine]-1″-carboxylate, trifluoroacetate salt], the IC50 was no more than 100 nM in test [1], no more than 100 nM in test [2], 500 to 1250 nM in test [3] and 500 to 1250 nM in test [4].
`COCCS(=O)(=O)N1CCC2(CC1)CC1(C2)C(=O)N(C)c2cnc3[nH]c(-c4cnn(C)c4)c(-c4ccccc4)c3c21` [Example 62, 1″-((2-Methoxyethyl)sulfonyl)-6-methyl-2-(1-methyl-1H-pyrazol-4-yl)-1-phenyl-3,6-dihydro-7H-dispiro[dipyrrolo[2,3-b:3′,2′-d]pyridine-8,1′-cyclobutane-3′,4″-piperidin]-7-one, trifluoroacetate salt]: the IC50 in test [1] was no more than 100 nM; in test [2], no more than 100 nM; in test [3] it was greater than 2500 nM; in test [4] it was greater than 2500 nM.
Take `CCCC(=O)N1CCC2(CC1)CC1(C2)C(=O)N(C)c2cnc3[nH]c(-c4ccn(C)c4)c(-c4ccc5c(cnn5C)c4)c3c21` [Example 64, 1″-Butyryl-6-methyl-1-(1-methyl-1H-indazol-5-yl)-2-(1-methyl-1H-pyrrol-3-yl)-3,6-dihydro-7H-dispiro[dipyrrolo[2,3-b:3′,2′-d]pyridine-8,1cyclobutane-3′,4″-piperidin]-7-one, trifluoroacetate salt]: the IC50 was no more than 100 nM in test [1], no more than 100 nM in test [2], 1250 to 2500 nM in test [3] and 1250 to 2500 nM in test [4].
For the molecule `CN1C(=O)C2(CCN(C3(CC#N)CCCC3)CC2)c2c1cnc1[nH]c(-c3cnn(C)c3)c(-c3ccc4c(cnn4C)c3)c21` [Example 73, 2-(1-(6-Methyl-1-(1-methyl-1H-indazol-5-yl)-2-(1-methyl-1H-pyrazol-4-yl)-7-oxo-6,7-dihydro-3H-spiro[dipyrrolo[2,3-b:3′,2′-d]pyridine-8,4′-piperidin]-1′-yl)cyclopentyl)acetonitrile, trifluoroacetate salt], the IC50 in test [1] is no more than 100 nM; in test [2], no more than 100 nM; in test [3] it was 100 to 500 nM; in test [4], 100 to 500 nM.
`CN1C(=O)C2(C=CN(C3(CC#N)CC3)C=C2)c2c1cnc1[nH]c(-c3cnn(C)c3)c(-c3ccc4c(cnn4C)c3)c21` [Example 74, 2-(1-(6-Methyl-1-(1-methyl-1H-indazol-5-yl)-2-(1-methyl-1H-pyrazol-4-yl)-7-oxo-6,7-dihydro-1′H,3H-spiro[dipyrrolo[2,3-b:3′,2′-d]pyridine-8,4′-pyridin]-1′-yl)cyclopropyl)acetonitrile, trifluoroacetate salt]: the IC50 was no more than 100 nM in test [1], no more than 100 nM in test [2], 500 to 1250 nM in test [3] and 500 to 1250 nM in test [4].
Take `CN1C(=O)C2(CCN(C(C)(C)c3c[nH]nn3)CC2)c2c1cnc1[nH]c(-c3cnn(C)c3)c(-c3ccc4c(cnn4C)c3)c21` [Example 76, 1′-(2-(1H-1,2,3-Triazol-4-yl)propan-2-yl)-6-methyl-1-(1-methyl-1H-indazol-5-yl)-2-(1-methyl-1H-pyrazol-4-yl)-3,6-dihydro-7H-spiro[dipyrrolo[2,3-b:3′,2′-d]pyridine-8,4′-piperidin]-7-one]: the IC50 in test [1] was no more than 100 nM; in test [2] it was no more than 100 nM; in test [3], 100 to 500 nM; in test [4], 100 to 500 nM.
